Laboratory results from patent publication US8415469B2, “Compounds and methods for kinase modulation, and indications therefor” (Plexxikon Inc., priority 2005, dated 2013).

What was measured:
Type in all cases: biochemical
B-Raf V600E = biological target: T1, B-Raf V600E (Homo sapiens, UniProt P15056, V600E); assay: AlphaScreen kinase assay, B-Raf V600E; conditions: read-out: IC50, activity toward kinase B-Raf V600E
T1 construct: P4254. pFastBacBD-CDC37 BRAF D437-K722-X, V600E; His6 with pFastBac HT leader (TEV site) (N); made in house; host or cells: Sf9 (baculovirus; chaperone CDC37 co-expressed)

Itk = biological target: T2, Itk (Homo sapiens, UniProt Q08881); assay: AlphaScreen kinase assay, Itk; conditions: read-out: IC50, activity toward kinase Itk
T2 sequence (Q08881 1-620): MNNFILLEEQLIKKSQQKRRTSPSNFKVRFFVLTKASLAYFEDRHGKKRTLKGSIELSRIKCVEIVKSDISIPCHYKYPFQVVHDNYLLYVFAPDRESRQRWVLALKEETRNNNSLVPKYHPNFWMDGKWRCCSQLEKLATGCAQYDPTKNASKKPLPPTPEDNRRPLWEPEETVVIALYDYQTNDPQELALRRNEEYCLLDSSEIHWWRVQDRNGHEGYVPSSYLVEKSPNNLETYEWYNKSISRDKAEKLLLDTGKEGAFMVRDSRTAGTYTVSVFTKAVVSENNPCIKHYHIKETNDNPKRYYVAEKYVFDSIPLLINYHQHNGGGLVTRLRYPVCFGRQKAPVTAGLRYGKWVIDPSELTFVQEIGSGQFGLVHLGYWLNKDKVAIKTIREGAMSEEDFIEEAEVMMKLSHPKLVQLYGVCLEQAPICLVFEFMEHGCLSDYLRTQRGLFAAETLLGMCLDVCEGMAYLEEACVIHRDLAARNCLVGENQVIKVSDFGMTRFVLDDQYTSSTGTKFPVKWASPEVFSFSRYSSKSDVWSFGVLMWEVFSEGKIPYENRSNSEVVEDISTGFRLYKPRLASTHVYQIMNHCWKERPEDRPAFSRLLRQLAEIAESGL
From the text: AlphaScreen assay was used to screen additional kinases. The assay is similarly dependent on the phosphorylation of a peptide substrate. In this assay, an antibody that recognizes phosphorylated substrate is bound to an acceptor bead. The peptide substrate is attached to biotin, which binds to a donor head that contains streptavidin. Thus phosphorylated substrate is bound by antibody and streptavidin, bringing the donor and acceptor heads into close proximity when kinase is not inhibited. The donor produces singlet oxygen which results in emission from the acceptor when they are in close proximity. Conversely, when kinase is inhibited, the donor and acceptor beads are not associated and the emission from the acceptor is reduced.
AlphaScreen assays were done using compounds dissolved in DMSO to a concentration of 20 mM. The compounds were diluted accordingly to the desired final concentrations in each sample well, using 1:3 serial dilution for a total of 8 concentration points.

Akt3 = Akt3 (Homo sapiens, UniProt Q9Y243); assay: AlphaScreen kinase assay, Akt3; conditions: read-out: IC50, activity toward kinase Akt3
Summary of the method: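 Peptide phosphorylation detected by proximity: streptavidin donor beads bind biotinylated substrate, acceptor beads carry antibody to phosphorylated substrate, singlet oxygen transfer gives emission. Dose-response over 8 points (1:3 steps); stocks 20 mM in DMSO.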

Jnk3 = biological target: T3, Jnk3 (Homo sapiens, UniProt P53779); assay: AlphaScreen kinase assay, Jnk3; conditions: read-out: IC50, activity toward kinase Jnk3
T3 construct: purchased Upstate Biotechnology

Kit = biological target: T4, Kit (Homo sapiens, UniProt P10721); assay: AlphaScreen kinase assay, Kit; conditions: read-out: IC50, activity toward kinase Kit
T4 construct: P1332.N6 BI PTP KIT M552-K948-X COD; His6 (N); made in house; host or cells: E. coli (PTP1B co-expressed)

Src = biological target: T5, Src (Homo sapiens, UniProt P12931); assay: AlphaScreen kinase assay, Src; conditions: read-out: IC50, activity toward kinase Src
T5 construct: P1144. pET-N6 BI-PTP SRC V86-L536-X; made in house

Jnk1 = biological target: T6, Jnk1 (Homo sapiens, UniProt P45983); assay: AlphaScreen kinase assay, Jnk1; conditions: read-out: IC50, activity toward kinase Jnk1
T6 construct: purchased Upstate Biotechnology

B-Raf = biological target: T7, B-Raf (Homo sapiens, UniProt P15056); assay: AlphaScreen kinase assay, B-Raf; conditions: read-out: IC50, activity toward kinase B-Raf
T7 construct: purchased Upstate Biotechnology

FGFR1 = biological target: T8, FGFR1 (Homo sapiens, UniProt P11362, C488A/C584S); assay: AlphaScreen kinase assay, FGFR1; conditions: read-out: IC50, activity toward kinase FGFR
T8 construct: P1351.pET N6 BI-PTP FGFR A458-E765-X C488A, C584S; made in house; host or cells: E. coli (PTP1B co-expressed)

Fak = biological target: T9, Fak (Homo sapiens, UniProt Q05397); assay: AlphaScreen kinase assay, Fak; conditions: read-out: IC50, activity toward kinase Fak
T9 construct: P1358.pFastBacHtb FAK S411-Q686-X; His6 with pFastBacHTb leader (TEV site) (N); made in house; host or cells: Sf9 (baculovirus)

Fms = biological target: T10, Fms (Homo sapiens, UniProt P07333); assay: AlphaScreen kinase assay, Fms; conditions: read-out: IC50, activity toward kinase Fms
T10 construct: purchased Upstate Biotechnology

c-Raf-1 = biological target: T11, c-Raf-1 (Homo sapiens, UniProt P04049); assay: AlphaScreen kinase assay, c-Raf-1; conditions: read-out: IC50, activity toward kinase c-Raf-1
T11 construct: purchased Upstate Biotechnology

Pyk2 = biological target: T12, Pyk2 (Homo sapiens, UniProt Q14289); assay: AlphaScreen kinase assay, Pyk2; conditions: read-out: IC50, activity toward kinase Pyk2
T12 construct: purchased Upstate Biotechnology

Stk6 = biological target: T13, Stk6 (Homo sapiens, UniProt O14965); assay: Z'-Lyte FRET kinase assay (Invitrogen), Stk6; conditions: read-out: IC50, activity toward kinase Stk6
T13 construct: purchased Invitrogen (Carlsbad, Calif.), screening service
T13 sequence (O14965 1-403): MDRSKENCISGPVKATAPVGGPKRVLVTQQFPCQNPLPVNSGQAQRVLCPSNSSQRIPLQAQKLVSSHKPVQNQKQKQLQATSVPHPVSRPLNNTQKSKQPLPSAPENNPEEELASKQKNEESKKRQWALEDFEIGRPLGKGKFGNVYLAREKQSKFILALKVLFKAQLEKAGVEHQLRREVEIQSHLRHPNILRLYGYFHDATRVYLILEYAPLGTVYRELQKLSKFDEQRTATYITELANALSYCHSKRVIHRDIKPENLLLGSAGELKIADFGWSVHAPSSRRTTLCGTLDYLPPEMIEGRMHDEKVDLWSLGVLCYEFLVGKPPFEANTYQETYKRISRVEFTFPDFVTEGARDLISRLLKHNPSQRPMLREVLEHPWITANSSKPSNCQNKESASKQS

Kdr = biological target: T14, Kdr (Homo sapiens, UniProt P35968); assay: Z'-Lyte FRET kinase assay (Invitrogen), Kdr; conditions: read-out: IC50, activity toward kinase Kdr
T14 construct: purchased Invitrogen (assay run by Invitrogen)

IKK beta = biological target: T15, IKK beta (Homo sapiens, UniProt O14920); assay: AlphaScreen kinase assay, IKK beta; conditions: read-out: IC50, activity toward kinase IKK beta
T15 sequence (O14920 1-756): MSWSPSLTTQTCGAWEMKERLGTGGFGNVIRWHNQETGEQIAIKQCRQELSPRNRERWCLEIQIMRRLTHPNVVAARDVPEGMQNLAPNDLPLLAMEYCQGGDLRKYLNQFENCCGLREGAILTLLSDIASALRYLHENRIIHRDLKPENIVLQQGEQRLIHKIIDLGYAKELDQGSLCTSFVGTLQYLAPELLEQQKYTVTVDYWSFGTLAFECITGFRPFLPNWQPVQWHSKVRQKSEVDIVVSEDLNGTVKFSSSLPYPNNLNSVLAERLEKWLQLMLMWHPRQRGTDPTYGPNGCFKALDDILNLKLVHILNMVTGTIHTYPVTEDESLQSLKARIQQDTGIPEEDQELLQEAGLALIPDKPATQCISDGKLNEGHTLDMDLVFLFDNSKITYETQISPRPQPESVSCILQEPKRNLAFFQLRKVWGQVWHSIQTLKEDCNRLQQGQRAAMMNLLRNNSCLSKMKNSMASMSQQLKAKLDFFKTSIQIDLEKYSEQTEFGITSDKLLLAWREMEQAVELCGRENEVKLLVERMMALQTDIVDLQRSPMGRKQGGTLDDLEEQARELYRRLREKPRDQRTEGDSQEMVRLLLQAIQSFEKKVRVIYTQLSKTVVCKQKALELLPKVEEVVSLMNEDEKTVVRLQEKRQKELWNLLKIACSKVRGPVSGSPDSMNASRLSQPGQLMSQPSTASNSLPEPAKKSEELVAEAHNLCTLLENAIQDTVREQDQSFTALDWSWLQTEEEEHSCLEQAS

PKC theta = biological target: T16, PKC theta (Homo sapiens, UniProt Q04759); assay: Z'-Lyte FRET kinase assay (Invitrogen), PKC theta; conditions: read-out: IC50, activity toward kinase PKC theta
T16 construct: purchased Invitrogen (Carlsbad, Calif.), screening service
From the text: The effect of potential modulators of kinase activity can be measured in a variety of different assays known in the art. For example, direct radiometric, indirect FRET or AlphaScreen assays may be used to assess the level of phosphorylation of a substrate in the presence of test compounds in order to determine the inhibitory affect of the compound on the kinase. Invitrogen (Carlsbad, Calif.) uses a FRET based assay for Btk, EGFR, EphB2, Flt3, lrak4, Kdr, MAP2K1, MAPKAPK2, PDGFRB, PKC theta, Stk6 and Yes. For these assays, compounds of the invention were screened by Invitrogen using Z′-Lyte™ kinase assay.
Briefly, the Invitrogen kinase assay involves use of a specific peptide substrate optimized for each kinase, containing a fluorophore at each end that make up the FRET pair. The peptide sensitivity to proteolytic cleavage depends on phosphorylation of the peptide. Non-phosphorylated peptide is cleaved by a protease while peptide phosphorylated by the kinase is not cleaved. Cleavage of the peptide disrupts the FRET between the donor (coumarin) and acceptor (fluorescein) fluorophores, resulting in an increase in the ratio of donor emission to acceptor emission. The emission ratio of coumarin to fluorescein is used to assess the reaction progress. The extent of phosphorylation is determined from the emission ratio, which is low when the kinase is active (phosphorylated peptide is not cleaved, FRET pair connected) or higher for inhibited kinase (non-phosphorylated peptide is cleaved, FRET pair separated). Thus, the assay involves a kinase reaction in the presence of varying concentrations of a given compound, a development reaction with site specific protease, and detection of the fluorescent emission ratio of coumarin and fluorscein. […] Reaction conditions for each kinase are determined to provide optimal reaction times, incubation temperature, kinase and ATP concentrations. Test samples are made up in 1× kinase buffer (50 mM HEPES pH 7.5, 50 mM MgCl2, 5 mM EGTA, 0.05% BRIJ-35) and compound at desired concentration prepared in DMSO such that the final DMSO is 1%. […] Typically, assay plates are prepared to 10 μl final volume per sample, adding 2.5 μl of compound at 4× the desired concentration in 4% DMSO (serial dilution of compound provides concentration curve), 5 μl of the desired kinase mixed with Z′-LYTE™ peptide substrate (2× in 2× kinase buffer, final peptide at 2 μM), and 2.5 μl of 4×ATP solution. All kinase except for MAP2K1 were at 10 μM ATP in the kinase reaction, while MAP2K1 was at 100 μM. Samples are mixed and the kinase reaction is incubated 1 hour at room temperature, after which 5 μl of development solution is added and mixed. After incubation for another 1 hour at room temperature, 5 μl of stop reagent is added to each sample and mixed. The fluorescence signals are measured to determine the emission ratio.

Measured: IC50

T1 sequence (P15056 with tags, fused parts or gaps V600E): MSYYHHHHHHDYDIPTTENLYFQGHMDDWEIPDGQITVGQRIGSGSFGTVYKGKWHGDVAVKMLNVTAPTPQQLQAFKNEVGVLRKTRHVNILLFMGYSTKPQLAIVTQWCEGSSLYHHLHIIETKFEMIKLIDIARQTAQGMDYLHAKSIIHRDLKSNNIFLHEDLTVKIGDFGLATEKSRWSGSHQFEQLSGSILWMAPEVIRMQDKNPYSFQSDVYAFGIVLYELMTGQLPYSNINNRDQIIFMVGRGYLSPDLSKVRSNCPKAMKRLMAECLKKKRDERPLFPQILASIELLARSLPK
Chain of Akt3 (Q9Y243 whole entry): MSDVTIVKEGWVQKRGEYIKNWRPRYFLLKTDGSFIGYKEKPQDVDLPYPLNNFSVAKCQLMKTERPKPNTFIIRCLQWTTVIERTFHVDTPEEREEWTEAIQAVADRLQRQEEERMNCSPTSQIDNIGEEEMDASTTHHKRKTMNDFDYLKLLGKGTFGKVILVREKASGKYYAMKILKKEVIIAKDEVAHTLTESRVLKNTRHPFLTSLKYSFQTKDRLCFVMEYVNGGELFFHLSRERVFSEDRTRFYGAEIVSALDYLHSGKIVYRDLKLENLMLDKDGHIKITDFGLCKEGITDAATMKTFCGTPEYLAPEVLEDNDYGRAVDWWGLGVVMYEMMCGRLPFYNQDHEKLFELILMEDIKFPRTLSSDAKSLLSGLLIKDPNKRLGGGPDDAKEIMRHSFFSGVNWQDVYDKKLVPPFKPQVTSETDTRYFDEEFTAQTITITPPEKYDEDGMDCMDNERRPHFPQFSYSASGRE
T7 sequence (P15056 whole entry): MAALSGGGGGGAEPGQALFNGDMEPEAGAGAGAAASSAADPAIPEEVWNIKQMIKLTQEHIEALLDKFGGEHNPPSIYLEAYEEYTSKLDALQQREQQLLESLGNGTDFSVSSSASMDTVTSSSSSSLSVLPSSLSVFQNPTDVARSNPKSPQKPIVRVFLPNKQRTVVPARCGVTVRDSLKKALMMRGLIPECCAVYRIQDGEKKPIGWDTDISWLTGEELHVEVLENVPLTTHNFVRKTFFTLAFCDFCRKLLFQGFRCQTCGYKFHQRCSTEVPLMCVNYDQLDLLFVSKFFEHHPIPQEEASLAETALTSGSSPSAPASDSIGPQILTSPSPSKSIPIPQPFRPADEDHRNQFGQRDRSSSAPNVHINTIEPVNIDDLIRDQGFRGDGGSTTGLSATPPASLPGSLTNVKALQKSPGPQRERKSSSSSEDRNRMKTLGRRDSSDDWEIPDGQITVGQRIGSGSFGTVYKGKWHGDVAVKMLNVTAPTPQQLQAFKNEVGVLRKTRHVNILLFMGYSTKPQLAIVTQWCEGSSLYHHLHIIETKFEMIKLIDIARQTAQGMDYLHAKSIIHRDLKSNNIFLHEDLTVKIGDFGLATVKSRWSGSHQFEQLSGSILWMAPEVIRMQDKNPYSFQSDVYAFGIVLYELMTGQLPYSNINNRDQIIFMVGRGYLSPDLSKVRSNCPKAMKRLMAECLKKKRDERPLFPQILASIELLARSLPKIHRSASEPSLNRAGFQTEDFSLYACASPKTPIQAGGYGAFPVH
T4 sequence (P10721 with tags, fused parts or gaps): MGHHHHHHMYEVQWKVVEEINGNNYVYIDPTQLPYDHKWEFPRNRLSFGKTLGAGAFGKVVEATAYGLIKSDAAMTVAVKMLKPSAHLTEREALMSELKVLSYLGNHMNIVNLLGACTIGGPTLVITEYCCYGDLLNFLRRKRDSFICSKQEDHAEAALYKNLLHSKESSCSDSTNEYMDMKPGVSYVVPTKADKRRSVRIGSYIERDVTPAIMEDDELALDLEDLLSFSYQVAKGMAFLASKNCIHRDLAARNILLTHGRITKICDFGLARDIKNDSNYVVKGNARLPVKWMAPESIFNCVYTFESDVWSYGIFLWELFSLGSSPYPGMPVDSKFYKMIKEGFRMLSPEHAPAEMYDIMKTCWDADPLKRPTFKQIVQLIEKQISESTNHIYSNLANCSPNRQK
T3 sequence (P53779 whole entry): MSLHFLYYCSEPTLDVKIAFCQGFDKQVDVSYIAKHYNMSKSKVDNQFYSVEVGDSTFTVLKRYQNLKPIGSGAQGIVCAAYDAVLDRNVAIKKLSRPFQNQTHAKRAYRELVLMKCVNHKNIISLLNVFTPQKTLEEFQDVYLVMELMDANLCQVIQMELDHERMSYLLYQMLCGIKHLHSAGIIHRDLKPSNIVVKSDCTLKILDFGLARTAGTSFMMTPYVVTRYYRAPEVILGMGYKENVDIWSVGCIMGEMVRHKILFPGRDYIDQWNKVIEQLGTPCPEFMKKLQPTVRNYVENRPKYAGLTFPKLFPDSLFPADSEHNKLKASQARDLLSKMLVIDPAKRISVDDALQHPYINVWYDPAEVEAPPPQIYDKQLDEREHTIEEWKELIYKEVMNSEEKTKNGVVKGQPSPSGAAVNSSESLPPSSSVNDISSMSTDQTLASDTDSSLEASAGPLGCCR
T10 sequence (P07333 20-972): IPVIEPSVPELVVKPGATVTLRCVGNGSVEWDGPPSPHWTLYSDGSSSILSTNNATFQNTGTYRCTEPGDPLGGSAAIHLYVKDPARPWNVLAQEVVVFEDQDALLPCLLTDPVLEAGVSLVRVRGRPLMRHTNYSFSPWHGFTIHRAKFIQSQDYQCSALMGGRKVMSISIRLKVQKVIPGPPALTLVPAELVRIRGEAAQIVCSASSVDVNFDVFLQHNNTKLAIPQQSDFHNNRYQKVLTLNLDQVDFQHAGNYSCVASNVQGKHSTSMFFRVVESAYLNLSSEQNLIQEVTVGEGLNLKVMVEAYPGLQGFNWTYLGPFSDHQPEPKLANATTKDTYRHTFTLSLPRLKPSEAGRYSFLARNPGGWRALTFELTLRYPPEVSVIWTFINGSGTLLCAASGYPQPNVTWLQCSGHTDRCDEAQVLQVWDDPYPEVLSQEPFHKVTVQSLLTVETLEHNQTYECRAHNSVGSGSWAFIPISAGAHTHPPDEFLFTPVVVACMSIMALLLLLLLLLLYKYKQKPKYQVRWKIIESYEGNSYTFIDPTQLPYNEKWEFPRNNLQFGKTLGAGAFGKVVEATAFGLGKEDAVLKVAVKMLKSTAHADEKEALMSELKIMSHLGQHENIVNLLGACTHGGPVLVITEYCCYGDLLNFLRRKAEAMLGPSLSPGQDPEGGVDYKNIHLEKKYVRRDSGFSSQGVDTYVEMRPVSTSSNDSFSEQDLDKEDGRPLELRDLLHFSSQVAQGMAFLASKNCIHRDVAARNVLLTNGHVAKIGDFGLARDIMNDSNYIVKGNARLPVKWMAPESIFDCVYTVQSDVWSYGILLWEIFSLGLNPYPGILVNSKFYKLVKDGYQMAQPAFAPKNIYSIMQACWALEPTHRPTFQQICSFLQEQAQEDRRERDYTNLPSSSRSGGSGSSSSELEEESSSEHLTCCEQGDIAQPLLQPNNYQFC
T14 sequence (P35968 20-1356): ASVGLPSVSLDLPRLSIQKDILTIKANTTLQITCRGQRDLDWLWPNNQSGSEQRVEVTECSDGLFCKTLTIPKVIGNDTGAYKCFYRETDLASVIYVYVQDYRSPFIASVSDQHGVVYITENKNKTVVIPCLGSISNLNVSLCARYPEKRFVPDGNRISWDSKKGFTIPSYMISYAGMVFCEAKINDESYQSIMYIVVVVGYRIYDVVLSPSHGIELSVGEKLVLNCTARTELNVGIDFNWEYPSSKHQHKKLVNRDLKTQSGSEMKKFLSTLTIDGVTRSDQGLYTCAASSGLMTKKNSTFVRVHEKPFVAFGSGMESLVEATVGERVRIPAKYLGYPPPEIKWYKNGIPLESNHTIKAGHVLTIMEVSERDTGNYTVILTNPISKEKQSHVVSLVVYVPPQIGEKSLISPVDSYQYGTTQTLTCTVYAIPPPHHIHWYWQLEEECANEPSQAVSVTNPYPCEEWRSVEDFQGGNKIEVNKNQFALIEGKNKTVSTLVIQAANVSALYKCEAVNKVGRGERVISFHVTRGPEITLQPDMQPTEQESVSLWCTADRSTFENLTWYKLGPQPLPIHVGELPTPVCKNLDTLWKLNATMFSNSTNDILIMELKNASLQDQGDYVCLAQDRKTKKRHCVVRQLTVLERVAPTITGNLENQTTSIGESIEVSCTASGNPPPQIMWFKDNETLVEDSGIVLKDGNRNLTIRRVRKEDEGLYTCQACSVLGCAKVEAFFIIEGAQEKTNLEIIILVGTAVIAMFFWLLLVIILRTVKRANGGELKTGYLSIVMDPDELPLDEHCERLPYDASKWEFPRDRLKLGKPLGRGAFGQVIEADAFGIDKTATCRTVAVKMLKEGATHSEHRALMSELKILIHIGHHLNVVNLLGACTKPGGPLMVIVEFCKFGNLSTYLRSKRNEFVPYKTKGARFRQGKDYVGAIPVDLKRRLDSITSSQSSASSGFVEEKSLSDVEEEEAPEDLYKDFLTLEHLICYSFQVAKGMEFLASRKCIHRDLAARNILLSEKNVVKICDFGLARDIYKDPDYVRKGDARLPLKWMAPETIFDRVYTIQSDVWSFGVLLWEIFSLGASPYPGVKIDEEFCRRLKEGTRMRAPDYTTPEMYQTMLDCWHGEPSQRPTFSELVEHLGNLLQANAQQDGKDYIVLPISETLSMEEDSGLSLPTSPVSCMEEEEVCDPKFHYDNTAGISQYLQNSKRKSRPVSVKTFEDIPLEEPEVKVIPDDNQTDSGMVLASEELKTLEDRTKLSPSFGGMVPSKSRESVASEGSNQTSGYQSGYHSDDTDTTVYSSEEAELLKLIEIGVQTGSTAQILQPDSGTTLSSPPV
T9 sequence (Q05397 411-686): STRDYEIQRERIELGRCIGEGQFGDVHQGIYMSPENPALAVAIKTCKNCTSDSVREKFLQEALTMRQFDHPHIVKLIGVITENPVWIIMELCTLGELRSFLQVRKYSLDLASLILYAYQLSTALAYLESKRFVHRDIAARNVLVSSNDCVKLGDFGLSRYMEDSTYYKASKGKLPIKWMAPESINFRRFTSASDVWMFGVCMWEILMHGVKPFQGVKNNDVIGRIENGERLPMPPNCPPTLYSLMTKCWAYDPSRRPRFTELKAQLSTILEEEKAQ

Brc1ccc(Nc2cnc3[nH]ccc3c2)cc1 [Compound P-1067]
≤ 10 µM: B-Raf V600E | Itk

c1cc2cc(Nc3ccc(N4CCCCC4)cc3)cnc2[nH]1 [Compound P-1016]
≤ 10 µM: B-Raf V600E | Akt3 | Jnk3 | Itk | Kit

NC(=O)c1cccc(-c2cnc3[nH]cc(Cc4ccccc4O)c3c2)c1 [Compound P-1385]
not listed: Akt3 | c-Raf-1 | Pyk2 | Stk6 | Kdr | IKK beta | PKC theta
≤ 10 µM: all other assays above

c1cc(Nc2ccc(N3CCCCC3)cc2)c2cc[nH]c2n1 [Compound P-0883]
≤ 10 µM: B-Raf | c-Raf-1 | Akt3 | Itk | Pyk2 | Fms

CS(=O)(=O)c1cccc(-c2cnc3[nH]ccc3c2)c1 [Compound P-0173, 5-(3-Methanesulfonyl-phenyl)-1H-pyrrolo[2,3-b]pyridine]
≤ 10 µM: Stk6 | Kdr | Itk

c1cc(-c2ccc(N3CCNCC3)nc2)c2cc[nH]c2n1 [Compound P-0270]
≤ 10 µM: IKK beta | PKC theta | Akt3 | Kdr
